In assay [1] the test system is CWR22R. Kind of assay: Cytotoxicity against human 22Rv1 cells assessed as reduction in cell viability incubated for 72 hrs by MTT assay. It counts as functional, cell-based.
Assay [2] concerns the target T1, Androgen receptor (Homo sapiens) (UniProt P10275).
T1 sequence (whole entry): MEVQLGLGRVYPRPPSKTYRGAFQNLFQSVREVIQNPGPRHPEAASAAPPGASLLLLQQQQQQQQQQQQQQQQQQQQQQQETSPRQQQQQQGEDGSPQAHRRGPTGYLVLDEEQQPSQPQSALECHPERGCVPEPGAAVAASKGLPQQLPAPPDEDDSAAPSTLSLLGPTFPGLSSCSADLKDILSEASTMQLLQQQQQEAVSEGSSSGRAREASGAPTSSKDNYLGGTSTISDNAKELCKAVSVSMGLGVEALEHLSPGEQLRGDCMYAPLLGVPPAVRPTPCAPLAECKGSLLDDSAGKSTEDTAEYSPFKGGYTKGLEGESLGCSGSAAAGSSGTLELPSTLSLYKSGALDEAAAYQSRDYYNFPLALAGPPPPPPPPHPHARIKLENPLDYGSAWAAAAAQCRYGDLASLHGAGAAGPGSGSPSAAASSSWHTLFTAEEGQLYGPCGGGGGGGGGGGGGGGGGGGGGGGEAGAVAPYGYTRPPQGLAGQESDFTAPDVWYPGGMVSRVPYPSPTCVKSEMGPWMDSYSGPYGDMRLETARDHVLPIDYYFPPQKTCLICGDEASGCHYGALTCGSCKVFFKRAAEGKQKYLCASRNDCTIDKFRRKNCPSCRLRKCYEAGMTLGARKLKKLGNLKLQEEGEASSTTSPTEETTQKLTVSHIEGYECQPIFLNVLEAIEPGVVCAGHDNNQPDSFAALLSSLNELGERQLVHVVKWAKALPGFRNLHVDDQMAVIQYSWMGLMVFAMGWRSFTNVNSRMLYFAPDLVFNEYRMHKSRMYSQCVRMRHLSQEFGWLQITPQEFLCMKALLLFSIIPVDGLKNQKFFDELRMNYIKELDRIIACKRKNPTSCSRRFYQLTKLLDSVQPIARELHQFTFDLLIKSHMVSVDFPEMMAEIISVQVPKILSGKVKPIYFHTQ
The assay is described as follows: Antagonist activity at androgen receptor in human LNCaP cells assessed as reduction in DHT-induced TMPRSS2 mRNA expression after 48 hrs by SYBR green dye based qPCR analysis. It counts as cell-based. The note with it: filed as antagonist, dose 0.1-10 µM. Background: Quantitative PCR measures a nucleic acid by following its amplification.

For assay [3], the target named is T1, Androgen receptor (Homo sapiens). The assay is described as follows: Antagonist activity at androgen receptor in human LNCaP cells assessed as reduction in DHT-induced AR protein expression at 0.1 to 10 uM after 48 hrs by Western blot analysis. It counts as cell-based. The note with it: dose 0.1-10 µM. (In western blotting, separated proteins are transferred to a membrane and probed.)

The test system of assay [4] is A549. Kind of assay: Cytotoxicity against human A549 cells assessed as reduction in cell viability at low concentration incubated for 72 hrs by MTT assay. It counts as functional, cell-based. On the technique in general: Formazan colour is commonly taken as a measure of viable cells.
Assay [5] deals with T2, Glucocorticoid receptor (Homo sapiens, UniProt P04150).
T2 sequence (P04150 whole entry): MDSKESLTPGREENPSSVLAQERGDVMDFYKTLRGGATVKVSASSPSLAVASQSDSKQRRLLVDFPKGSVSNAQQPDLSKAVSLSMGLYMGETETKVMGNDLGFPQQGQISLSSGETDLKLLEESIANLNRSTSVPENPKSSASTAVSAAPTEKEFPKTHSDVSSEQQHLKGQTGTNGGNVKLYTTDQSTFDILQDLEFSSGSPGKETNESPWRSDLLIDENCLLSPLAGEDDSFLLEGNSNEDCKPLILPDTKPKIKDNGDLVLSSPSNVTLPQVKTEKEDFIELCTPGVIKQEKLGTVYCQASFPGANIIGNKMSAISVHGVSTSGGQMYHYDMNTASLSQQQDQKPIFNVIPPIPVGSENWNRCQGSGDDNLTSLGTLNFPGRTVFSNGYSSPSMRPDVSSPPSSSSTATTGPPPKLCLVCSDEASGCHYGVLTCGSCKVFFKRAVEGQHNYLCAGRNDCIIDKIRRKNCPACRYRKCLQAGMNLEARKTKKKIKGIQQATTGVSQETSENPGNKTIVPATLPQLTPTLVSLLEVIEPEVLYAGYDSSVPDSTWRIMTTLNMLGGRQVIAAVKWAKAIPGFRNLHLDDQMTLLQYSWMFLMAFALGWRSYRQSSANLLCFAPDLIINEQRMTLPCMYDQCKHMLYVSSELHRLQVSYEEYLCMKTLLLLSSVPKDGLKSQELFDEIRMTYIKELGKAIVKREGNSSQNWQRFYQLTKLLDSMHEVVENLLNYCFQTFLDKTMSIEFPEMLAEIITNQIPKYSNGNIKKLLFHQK
The assay is described as follows: Antagonist activity at glucocorticoid receptor in human HeLa cells assessed as reduction in dexamethasone-induced luciferase activity by dual-Glo luciferase assay. It counts as cell-based.

The target of assay [6] is T3, Glucocorticoid receptor (Homo sapiens) (UniProt P04150).
T3 sequence (whole entry): T2 sequence (P04150 whole entry)
Kind of assay: Agonist activity at glucocorticoid receptor in human HeLa cells by dual-Glo luciferase assay. It counts as cell-based.

Assay [7] addresses T4, Mineralocorticoid receptor (Homo sapiens) (UniProt P08235).
T4 sequence (whole entry): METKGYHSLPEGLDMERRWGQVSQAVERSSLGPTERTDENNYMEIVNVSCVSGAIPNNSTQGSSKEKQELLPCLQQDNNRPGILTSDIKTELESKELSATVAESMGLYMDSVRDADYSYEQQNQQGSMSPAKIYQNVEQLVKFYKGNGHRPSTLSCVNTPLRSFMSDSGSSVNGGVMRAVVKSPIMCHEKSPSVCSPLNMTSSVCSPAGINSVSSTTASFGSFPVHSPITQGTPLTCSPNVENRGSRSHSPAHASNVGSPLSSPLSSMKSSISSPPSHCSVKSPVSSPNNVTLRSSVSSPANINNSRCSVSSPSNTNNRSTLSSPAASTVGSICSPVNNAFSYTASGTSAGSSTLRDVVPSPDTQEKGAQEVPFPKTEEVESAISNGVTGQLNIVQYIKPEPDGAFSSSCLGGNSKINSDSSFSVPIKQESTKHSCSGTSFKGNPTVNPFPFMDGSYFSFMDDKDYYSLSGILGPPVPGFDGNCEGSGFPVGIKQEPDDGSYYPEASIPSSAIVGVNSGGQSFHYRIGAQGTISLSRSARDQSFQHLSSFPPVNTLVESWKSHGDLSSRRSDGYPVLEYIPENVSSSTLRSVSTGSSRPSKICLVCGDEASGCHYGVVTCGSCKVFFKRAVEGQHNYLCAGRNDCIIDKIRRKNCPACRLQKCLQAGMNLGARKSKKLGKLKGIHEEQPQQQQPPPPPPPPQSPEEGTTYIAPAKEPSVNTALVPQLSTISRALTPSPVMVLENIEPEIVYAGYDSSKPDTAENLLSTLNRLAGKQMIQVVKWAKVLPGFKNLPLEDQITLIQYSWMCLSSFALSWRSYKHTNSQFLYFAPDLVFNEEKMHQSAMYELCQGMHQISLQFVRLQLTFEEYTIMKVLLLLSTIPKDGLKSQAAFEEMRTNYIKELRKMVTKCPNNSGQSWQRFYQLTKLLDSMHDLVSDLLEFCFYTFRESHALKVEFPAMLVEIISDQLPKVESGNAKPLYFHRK
Kind of assay: Agonist activity at mineralocorticoid receptor in human PC-3 cells by dual-Glo luciferase assay. It counts as cell-based.

Broadly, the IC50 is the concentration that inhibits the measured activity by half.

Calls of active or inactive are those of the source. No cut-off for these calls is given here.

As for `O=c1cc(C(F)(F)F)c2ccc(OCc3ccc(Br)cc3)cc2o1`, the outcome in assay [1] was Active. Besides, the Activity entry in assay [2] is “Dose-dependent effect”. Moreover, the result in assay [3], in assay [4], in assay [6] and in assay [7] was inactive. The IC50 in assay [5] was above 10 µM.
